SMILES strings stand for the structures.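 Test compounds were applied to cells in 96-well plates for 48 hours at 5 doses. GI50 marks 50% less growth. At the TGI there is no net growth.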

What all share (experiment): growth of human tumour cells (NCI), 48 h
Experiment [1] concerns A498 renal.
The subject of experiment [2] is A549 NSCLC.
Experiment [3] concerns BT-549 breast.
Experiment [4] concerns HCT-116 colon.
For experiment [5], the system named is HOP-92 NSCLC.
Experiment [6] concerns LOX IMVI melanoma.
Experiment [7] relates to M14 melanoma.
The test system of experiment [8] is OVCAR-3 ovarian.
Experiment [9] concerns OVCAR-8 ovarian.
Experiment [10] concerns UACC-62 melanoma.

With `CC1=CC2C3(C)C(C)(C(C)=CP3(=O)c3c(C(C)C)cc(C(C)C)cc3C(C)C)C1P2(=O)c1c(C(C)C)cc(C(C)C)cc1C(C)C` (stereo not given), the TGI in experiment [1] amounted to 6.26 µM; in experiment [2], 9.08 µM; in experiment [3] it was 4.58 µM; in experiment [4] it was 4.02 µM; in experiment [5], 7.97 µM; in experiment [6], 3.26 µM. The TGI in experiment [7] came out at 4.21 µM; in [8] it was 6.43 µM; in experiment [9], 16.6 µM; in experiment [10] it was 2.92 µM.

Turning to `N#Cc1c(-c2ccc([N+](=O)[O-])cc2)cc(-c2ccc(Nc3ccnc4cc(Cl)ccc34)cc2)[nH]c1=O`, the TGI in experiment [1], in experiment [2], in [3], in experiment [4], in experiment [5] and in [6] was above 100 µM each time. Besides, the TGI in experiment [7], in experiment [8], in experiment [9] and in [10] was above 100 µM in each case.

On to `CN(C)C(=O)C(F)(F)C(c1ccc(F)cc1)C1C(=O)N(C)C(=O)N(C)C1=O` (stereo not given), for which the TGI in experiment [1], in experiment [2], in [3], in experiment [4], in experiment [5] and in experiment [6] was above 100 µM each time. The TGI in experiment [7], in experiment [8], in experiment [9] and in [10] was above 100 µM throughout.

For `O=C(NCc1ccccc1)c1cc2ccccc2oc1=Nc1cccc(C(F)(F)F)c1`, the TGI in experiment [1], in experiment [2], in [3], in [4], in experiment [5] and in experiment [6] was above 100 µM throughout. The TGI in [7], in [8], in [9] and in experiment [10] was above 100 µM in each case.

For `Cc1nc2ccc(Cl)cc2c(-n2ccnc2)c1CCn1ccnc1`, the TGI in experiment [1] is 76.2 µM; in [2] it was above 100 µM; in [3], 69.7 µM; in experiment [4], above 100 µM; in experiment [5] it was 57.8 µM; in [6] it was above 100 µM. Moreover, the TGI in [7] was above 100 µM; in experiment [8], above 100 µM; in experiment [9], 3.37 µM; in [10] it was 62.5 µM.

With `O=C(O)c1nc2ccc(C(F)(F)F)cc2[nH]c1=O`, the TGI in experiment [1], in experiment [2], in experiment [3], in [4], in experiment [5] and in [6] was above 100 µM in each case. Moreover, the TGI in [7], in experiment [8], in experiment [9] and in experiment [10] was above 100 µM each time.

`CO/N=C1\CC(NC(=O)C(F)(F)F)c2ccsc21` (stereo not given): the TGI in [1], in experiment [2], in experiment [3], in experiment [4], in experiment [5] and in experiment [6] was above 100 µM throughout. Besides, the TGI in experiment [7], in experiment [8], in experiment [9] and in experiment [10] was above 100 µM in each case.

`Cn1c2ccccc2n2c3ncccc3c(=O)c(C#N)c12`: the TGI in experiment [1] is 34 µM; in [2] it was above 36.7 µM; in [3], 57.3 µM; in experiment [4] it was above 59 µM; in [5] it was above 100 µM; in experiment [6], 23.1 µM. Also, the TGI was above 100 µM in experiment [7], above 100 µM in experiment [8], 23.5 µM in experiment [9] and 28.4 µM in experiment [10].

With `CC(C)NC(=O)OCc1c(COC(=O)NC(C)C)n(C)c2c1ccc1sccc12`, the TGI in experiment [1] is 52.3 µM; in [2], above 54.2 µM; in [3] it was 10.7 µM; in experiment [4], 39 µM; in [5], 27.3 µM; in experiment [6], above 53.1 µM. Also, the TGI in experiment [7] was 36.7 µM; in experiment [8], 36.9 µM; in [9], above 100 µM; in experiment [10], 32.5 µM.

`COC(=O)c1ccccc1C1CN=NC12Cc1c(ccc(C)c1C)C2=O` (stereo not given): the TGI in experiment [1] was above 100 µM; in experiment [2], above 100 µM; in [3], above 100 µM; in experiment [4] it was above 100 µM; in [5] it was 84.2 µM; in [6], above 100 µM. Also, the TGI in experiment [7], in experiment [8], in experiment [9] and in experiment [10] was above 100 µM in each case.

With `CN(O)C(=O)/C=C/c1ccc(OCc2cccc(Cl)c2)cc1`, the TGI is 66 µM in experiment [1]; 63.5 µM in experiment [2]; 85.3 µM in experiment [3]; 32.9 µM in experiment [4]; above 100 µM in experiment [5]; 30.5 µM in [6]. For the same molecule, the TGI in [7] is above 100 µM; in [8], above 100 µM; in experiment [9], 32.8 µM; in [10], 31.3 µM.

As for `CC(=O)c1ccc(Oc2c3ccccc3nc3ccccc23)cc1`, the TGI in experiment [1] was 31.8 µM; in experiment [2] it was 31.7 µM; in [3] it was 27.1 µM; in experiment [4], 8.81 µM; in [5], 25.6 µM; in [6], 17.9 µM. Further, the TGI was 14.6 µM in [7], 21 µM in experiment [8], 22.2 µM in [9] and 17 µM in [10].

As to `O=C(ON=C1c2ccccc2C(Br)C(Br)c2ccccc21)c1ccccc1` (stereo not given), the TGI was 40.9 µM in experiment [1]; 44 µM in experiment [2]; 35.7 µM in experiment [3]; 28 µM in experiment [4]; 5.27 µM in [5]; 9.12 µM in experiment [6]. The TGI was determined as 32.6 µM in experiment [7], 28.7 µM in [8], 30.8 µM in experiment [9] and 32.7 µM in experiment [10].

On to `CN(C)c1ccc(/C=C(\NC(=O)c2ccccc2)C(=O)NC(CC(=O)O)C(=O)O)cc1` (stereo not given), for which the TGI in experiment [1], in [2], in [3], in [4], in experiment [5] and in [6] was above 100 µM each time. Further, the TGI in experiment [7], in experiment [8], in experiment [9] and in experiment [10] was above 100 µM in each case.

As for `O=C(CCc1cc(O)cc(O)c1)NCCc1cc(OCc2ccccc2)cc(OCc2ccccc2)c1`, the TGI in experiment [1] worked out at 42.8 µM; in [2], 23.6 µM; in experiment [3], 35.8 µM; in [4], 32.2 µM; in experiment [5] it was 45.3 µM; in experiment [6], 32 µM. The TGI is 34.8 µM in experiment [7], 52.2 µM in experiment [8], 50.6 µM in experiment [9] and 40.2 µM in experiment [10].

Consider `O=C1C=CC2(O[C@H](c3ccccc3)[C@@H](c3ccccc3)O2)[C@H](Sc2ccccc2O)C1`, for which the TGI in experiment [1] came to 5.15 µM; in experiment [2], 16.4 µM; in experiment [3], 1.46 µM; in experiment [4], 0.309 µM; in [5] it was 1.32 µM; in [6], 0.338 µM. Moreover, the TGI in [7] was determined as 0.609 µM; in [8], 1.51 µM; in experiment [9] it was 0.217 µM; in experiment [10] it was 2.13 µM.

With `O=C(CC(NC(=O)C(F)(F)F)C(=O)O)OCc1ccccc1` (stereo not given), the TGI in experiment [1], in experiment [2], in [3], in experiment [4], in experiment [5] and in [6] was above 100 µM in each case. In addition, the TGI in experiment [7], in experiment [8], in experiment [9] and in experiment [10] was above 100 µM in each case.

On to `Cc1c(C)n(-c2ccccc2)c2nc(S(C)=O)nc(S(C)=O)c12` (stereo not given), for which the TGI amounted to 26.9 µM in [1]; 31.7 µM in experiment [2]; 4.13 µM in experiment [3]; 4.86 µM in experiment [4]; 4.62 µM in experiment [5]; 4.15 µM in experiment [6]. Moreover, the TGI in experiment [7] came to 6.45 µM; in [8], 6.77 µM; in experiment [9], 12.4 µM; in experiment [10] it was 20.1 µM.

For `COC(=O)/C=C(\C)CC/C=C(\C)CCC1OC1(C)C` (stereo not given), the TGI in experiment [1] was 28.6 µM; in [2], 24.1 µM; in experiment [3] it was 21.8 µM; in [4], 24.3 µM; in [5], 22.8 µM; in experiment [6] it was 11 µM. Further, the TGI in experiment [7] was determined as 22.9 µM; in [8], 21.8 µM; in experiment [9], 25.7 µM; in experiment [10], 19.8 µM.

Regarding `COc1cccc(C2c3cc4c(cc3OC(O)C2C)OCO4)c1OC` (stereo not given), the TGI in experiment [1] came out at 16.2 µM; in experiment [2], 26 µM; in experiment [3] it was 65.6 µM; in experiment [4], 12.3 µM; in experiment [5] it was 8.55 µM; in [6], 23.5 µM. The TGI in experiment [7] was determined as 50.9 µM; in experiment [8], 17.9 µM; in experiment [9] it was 18.7 µM; in experiment [10], 44.7 µM.

With `CN1CSC(=S)N(c2cccc(C(F)(F)F)c2)C1`, the TGI is 82.1 µM in [1]; 73 µM in experiment [2]; 44.2 µM in experiment [3]; above 100 µM in experiment [4]; 50.5 µM in [5]; 43.1 µM in experiment [6]. In addition, the TGI in [7] worked out at 33.8 µM; in experiment [8] it was 46.7 µM; in experiment [9], 74.5 µM; in experiment [10], 31.7 µM.

Take `c1ccc(C2=NC3OC2c2ccccc23)cc1` (stereo not given): the TGI in [1], in [2], in experiment [3], in [4], in experiment [5] and in experiment [6] was above 10 µM each time. Moreover, the TGI in [7], in experiment [8], in experiment [9] and in [10] was above 10 µM each time.

On to `CCCCCCN(CCCCCC)C(=S)N/N=C(\C)c1ccccn1`, for which the TGI in experiment [1] came to 9.29 µM; in experiment [2], 3.66 µM; in experiment [3], 3.8 µM; in experiment [4] it was 2.39 µM; in experiment [5] it was 6.43 µM; in experiment [6], 2.59 µM. Also, the TGI in [7] came out at 3.29 µM; in experiment [8], 2.83 µM; in experiment [9] it was 3.38 µM; in experiment [10], 3.5 µM.

On to `Cn1c2ccccc2c2ccc3c(c21)C(=O)c1ccc2c4ccccc4n(C)c2c1C3=O`, for which the TGI in experiment [1], in experiment [2], in experiment [3], in [4], in [5] and in experiment [6] was above 100 µM throughout. The TGI in experiment [7], in experiment [8], in experiment [9] and in experiment [10] was above 100 µM in each case.

As for `CCCCCCCCCCCCCCCCCCOc1ccccc1CC(=O)NCC[N+]1(C)CCOCC1`, the GI50 is 13.4 µM in [1]; 4.39 µM in experiment [2]; 3.57 µM in [3]; 4.71 µM in experiment [4]; 1.03 µM in experiment [5]; 3.51 µM in experiment [6]. In addition, the GI50 was 4.32 µM in experiment [7], 4.43 µM in [8], 5.56 µM in experiment [9] and 4.31 µM in experiment [10]. The TGI was 44 µM in [1]; 26.3 µM in [2]; 74 µM in experiment [3]; above 100 µM in experiment [4]; 3.78 µM in experiment [5]; 42.4 µM in [6]. Further, the TGI in experiment [7] is above 100 µM; in [8], 34.2 µM; in [9] it was 29.9 µM; in [10] it was 30.7 µM.

On to `O=CC(I)=C(c1ccccc1)c1ccccc1`, for which the TGI came out at 41.8 µM in experiment [1]; 36.1 µM in experiment [2]; 30 µM in [3]; 27.2 µM in [4]; 38.1 µM in experiment [5]; 28.6 µM in experiment [6]. The TGI in experiment [7] amounted to 35.2 µM; in experiment [8], 17.7 µM; in [9], 53.8 µM; in experiment [10] it was 34.5 µM.

The values are drawn from PubChem BioAssay (NCI).
